Laboratory results taken from ChEMBL document CHEMBL4699655, “Optimization of the In Vivo Potency of Pyrazolopyrimidine MALT1 Protease Inhibitors by Reducing Metabolism and Increasing Potency in Whole Blood” (J Med Chem, 2020).
Converted amounts (≈) assume the structure as drawn. The source made the active and inactive calls. The rule behind the calls is not given here.

Tests used:
[1] = AUC (0 to 24 hrs) in Balb/C mouse at 3 mg/kg, po; assay type: ADME, organism-based; parameters: time < 24 hr, route oral, dose 3 mg/kg; details: in vivo
[2] = Cmax in blood of OFA rat model of T-cell dependent B cell response at 1 mg/kg, po QD for 4 days starting 2 days prior to immunization and measured after 3 hrs; assay type: ADME, organism-based; parameters: route oral, dose 1 mg/kg, time 4 day
[3] = Cmax in blood of OFA rat model of T-cell dependent B cell response at 3 mg/kg, po QD for 4 days starting 2 days prior to immunization and measured after 24 hrs; assay type: ADME, organism-based; parameters: route oral, dose 3 mg/kg, time 5 day
[4] = system: OCI-Ly3; assay: Antitumor activity against human OCILY3 cells xenografted in SCID-bg mouse assessed as tumor regression level at 30 mg/kg, po BID for 53 days; assay type: functional; details: time 53 day
[5] = biological target: Procathepsin L (Homo sapiens, UniProt P07711); assay: Inhibition of cathepsin L (unknown origin)
[6] = Apparent volume of distribution at steady state in Sprague-Dawley rat at 1 mg/kg, iv; assay type: ADME, organism-based; details: in vivo, read-out: Vdss(app)
[7] = Terminal half life in Balb/C mouse at 1 mg/kg, iv; assay type: ADME, organism-based; details: in vivo, read-out: beta t1/2 (converted)
[8] = Apparent volume of distribution at steady state in Balb/C mouse at 1 mg/kg, iv; assay type: ADME, organism-based; details: in vivo, read-out: Vdss(app)
[9] = Terminal half life in Sprague-Dawley rat at 1 mg/kg, iv; assay type: ADME, organism-based; details: in vivo, read-out: beta t1/2 (converted)
[10] = Apparent permeability from apical to basolateral side in human Caco-2 cells
[11] = biological target: T1, Cathepsin K (Homo sapiens, UniProt P43235); assay: Inhibition of cathepsin K (unknown origin)
T1 sequence (P43235 whole entry): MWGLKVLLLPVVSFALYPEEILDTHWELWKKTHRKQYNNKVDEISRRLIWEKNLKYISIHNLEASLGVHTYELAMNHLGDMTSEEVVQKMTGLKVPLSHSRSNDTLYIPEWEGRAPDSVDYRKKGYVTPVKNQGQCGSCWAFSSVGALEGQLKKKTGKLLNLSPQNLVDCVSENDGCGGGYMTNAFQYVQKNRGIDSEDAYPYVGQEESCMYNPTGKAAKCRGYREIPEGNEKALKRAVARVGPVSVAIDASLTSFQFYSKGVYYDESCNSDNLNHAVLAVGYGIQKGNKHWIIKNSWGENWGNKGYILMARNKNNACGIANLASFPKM

[12] = system: Rattus norvegicus; assay: Anti-autoimmune disease activity in OFA rat model of T-cell dependent B cell response assessed as reduction in SRBC-induced IgM producing B cells dosed orally once daily for 4 days starting 2 days prior to immunization by ex vivo plaque forming assay relative to control; assay type: functional
[13] = Toxicity in SCID-bg mouse xenografted with human OCILY3 cells assessed as effect on body weight at 30 mg/kg, po QD for 49 days; assay type: organism-based; details: in vivo, 1176 h, time 49 day
[14] = Intrinsic clearance in mouse liver microsomes; assay type: ADME, Microsome; details: read-out: CLH
[15] = AUC (0 to 24 hrs) in Sprague-Dawley rat at 3 mg/kg, po; assay type: ADME, organism-based; parameters: time < 24 hr, route oral, dose 3 mg/kg; details: in vivo
[16] = system: BJAB; assay: Growth inhibition of human BJAB cells grown in soft agar
[17] = Clearance in Balb/C mouse at 1 mg/kg, iv; assay type: ADME, organism-based; details: in vivo
[18] = biological target: Voltage-gated inwardly rectifying potassium channel KCNH2 (Homo sapiens, UniProt Q12809); assay: Inhibition of human ERG by dofetilide binding assay
[19] = system: BJAB; assay: Growth inhibition of human BJAB cells grown in soft agar at 19.5 to 10000 nM; assay type: functional, cell-based; details: dose nM 19.5-10000
[20] = biological target: Cathepsin B (Homo sapiens, UniProt P07858); assay: Inhibition of cathepsin B (unknown origin)
[21] = system: OCI-Ly3; assay: Inhibition of ROS production in human OCILY3 cells
[22] = biological target: Cytochrome P450 2C9 (Homo sapiens, UniProt P11712); assay: Inhibition of CYP2C9 (unknown origin)
[23] = biological target: Dipeptidyl peptidase 1 (Homo sapiens, UniProt P53634); assay: Inhibition of cathepsin C (unknown origin)
[24] = Toxicity in SCID-bg mouse xenografted with human OCILY3 cells assessed as effect on body weight at 30 mg/kg, po BID for 49 days; assay type: organism-based; details: in vivo, 1176 h, time 49 day
[25] = system: OCI-Ly3; assay: Antitumor activity against human OCILY3 cells xenografted in SCID-bg mouse assessed as inhibition of tumor growth by measuring T/C ratio at 30 mg/kg, po QD for 53 days; assay type: functional, organism-based; details: time 53.0 day
[26] = system: OCI-Ly3; assay: Antitumor activity against human OCILY3 cells xenografted in SCID-bg mouse assessed as tumor regression level at 30 mg/kg, po BID for 49 days; assay type: functional; details: time 49 day
[27] = Clearance in Sprague-Dawley rat at 1 mg/kg, iv; assay type: ADME, organism-based; details: in vivo
[28] = system: OCI-Ly3; assay: Antitumor activity against human OCILY3 cells xenografted in SCID-bg mouse assessed as inhibition of tumor growth by measuring T/C ratio at 30 mg/kg, po QD for 49 days; assay type: functional; details: time 49 day
[29] = Oral bioavailability in Sprague-Dawley rat at 3 mg/kg; assay type: ADME, organism-based; details: in vivo
[30] = Protein binding in rat plasma; assay type: ADME, cell-free; details: read-out: PPB (converted)
[31] = Protein binding in human plasma; assay type: ADME, cell-free; details: read-out: PPB (converted)
[32] = system: OCI-Ly3; assay: Growth inhibition of human OCILY3 cells grown in soft agar at 19.5 to 10000 nM; assay type: functional, cell-based; details: dose nM 19.5-10000
[33] = biological target: T2, Caspase-3 (Homo sapiens, UniProt P42574); assay: Inhibition of caspase-3 (unknown origin)
T2 sequence (P42574 whole entry): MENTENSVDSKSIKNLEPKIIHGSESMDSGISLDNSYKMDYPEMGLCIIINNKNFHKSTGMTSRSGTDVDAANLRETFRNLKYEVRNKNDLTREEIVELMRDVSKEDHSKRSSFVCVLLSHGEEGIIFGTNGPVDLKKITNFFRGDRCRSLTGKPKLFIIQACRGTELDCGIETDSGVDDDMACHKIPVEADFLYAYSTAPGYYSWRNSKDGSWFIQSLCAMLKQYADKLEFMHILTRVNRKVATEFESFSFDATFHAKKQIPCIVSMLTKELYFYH

[34] = Cmax in blood of OFA rat model of T-cell dependent B cell response at 0.3 mg/kg, po QD for 4 days starting 2 days prior to immunization and measured after 3 hrs; assay type: ADME, organism-based; parameters: route oral, time 4 day, dose 0.3 mg/kg
[35] = system: OCI-Ly3; assay: Growth inhibition of human OCILY3 cells grown in soft agar
[36] = biological target: Cytochrome P450 3A4 (Homo sapiens, UniProt P08684); assay: Inhibition of CYP3A4 (unknown origin)
[37] = Intrinsic clearance in human liver microsomes; assay type: ADME, Microsome; details: read-out: CLH
[38] = system: TMD8; assay: Inhibition of IL-10 production in tumor of CD79B-mutant containing human TMD8 cells xenografted in SCID-bg mouse at 30 mg/kg, po administered as single dose; assay type: functional, organism-based
[39] = Thermodynamic solubility of the compound
[40] = biological target: Cathepsin S (Homo sapiens, UniProt P25774); assay: Inhibition of cathepsin S (unknown origin)
[41] = Lipophilicity, logP of the compound; details: octanol/water
[42] = biological target: Cytochrome P450 2D6 (Homo sapiens, UniProt P10635); assay: Inhibition of CYP2D6 (unknown origin)
[43] = Cmax in blood of OFA rat model of T-cell dependent B cell response at 0.3 mg/kg, po QD for 4 days starting 2 days prior to immunization and measured after 24 hrs; assay type: ADME, organism-based; parameters: route oral, dose 0.3 mg/kg, time 5 day
[44] = Cmax in Balb/C mouse at 3 mg/kg, po; assay type: ADME, organism-based; parameters: route oral, dose 3 mg/kg; details: in vivo
[45] = Cmax in blood of OFA rat model of T-cell dependent B cell response at 3 mg/kg, po QD for 4 days starting 2 days prior to immunization and measured after 3 hrs; assay type: ADME, organism-based; parameters: route oral, dose 3 mg/kg, time 4 day
[46] = Cmax in blood of OFA rat model of T-cell dependent B cell response at 1 mg/kg, po QD for 4 days starting 2 days prior to immunization and measured after 24 hrs; assay type: ADME, organism-based; parameters: route oral, dose 1 mg/kg, time 5 day
[47] = Oral bioavailability in Balb/C mouse at 3 mg/kg; assay type: ADME, organism-based; details: in vivo
[48] = Cmax in Sprague-Dawley rat at 3 mg/kg, po; assay type: ADME, organism-based; parameters: route oral, dose 3 mg/kg; details: in vivo
[49] = system: Rattus norvegicus; assay: Anti-autoimmune disease activity in OFA rat model of T-cell dependent B cell response assessed as reduction in SRBC-induced IgM producing B cells at 3 mg/kg, po QD for 4 days starting 2 days prior to immunization by ex vivo plaque forming assay relative to control; assay type: functional; details: 96 h, read-out: INH, time 4 day
[50] = system: Rattus norvegicus; assay: Anti-autoimmune disease activity in OFA rat model of T-cell dependent B cell response assessed as reduction in SRBC-induced IgM producing B cells at 0.3 mg/kg, po QD for 4 days starting 2 days prior to immunization by ex vivo plaque forming assay relative to control; assay type: functional; details: 96 h, read-out: INH, time 4 day
[51] = Intrinsic clearance in rat liver microsomes; assay type: ADME, Microsome; details: read-out: CLH

Voltage-gated inwardly rectifying potassium channel KCNH2, sequence (Q12809 whole entry): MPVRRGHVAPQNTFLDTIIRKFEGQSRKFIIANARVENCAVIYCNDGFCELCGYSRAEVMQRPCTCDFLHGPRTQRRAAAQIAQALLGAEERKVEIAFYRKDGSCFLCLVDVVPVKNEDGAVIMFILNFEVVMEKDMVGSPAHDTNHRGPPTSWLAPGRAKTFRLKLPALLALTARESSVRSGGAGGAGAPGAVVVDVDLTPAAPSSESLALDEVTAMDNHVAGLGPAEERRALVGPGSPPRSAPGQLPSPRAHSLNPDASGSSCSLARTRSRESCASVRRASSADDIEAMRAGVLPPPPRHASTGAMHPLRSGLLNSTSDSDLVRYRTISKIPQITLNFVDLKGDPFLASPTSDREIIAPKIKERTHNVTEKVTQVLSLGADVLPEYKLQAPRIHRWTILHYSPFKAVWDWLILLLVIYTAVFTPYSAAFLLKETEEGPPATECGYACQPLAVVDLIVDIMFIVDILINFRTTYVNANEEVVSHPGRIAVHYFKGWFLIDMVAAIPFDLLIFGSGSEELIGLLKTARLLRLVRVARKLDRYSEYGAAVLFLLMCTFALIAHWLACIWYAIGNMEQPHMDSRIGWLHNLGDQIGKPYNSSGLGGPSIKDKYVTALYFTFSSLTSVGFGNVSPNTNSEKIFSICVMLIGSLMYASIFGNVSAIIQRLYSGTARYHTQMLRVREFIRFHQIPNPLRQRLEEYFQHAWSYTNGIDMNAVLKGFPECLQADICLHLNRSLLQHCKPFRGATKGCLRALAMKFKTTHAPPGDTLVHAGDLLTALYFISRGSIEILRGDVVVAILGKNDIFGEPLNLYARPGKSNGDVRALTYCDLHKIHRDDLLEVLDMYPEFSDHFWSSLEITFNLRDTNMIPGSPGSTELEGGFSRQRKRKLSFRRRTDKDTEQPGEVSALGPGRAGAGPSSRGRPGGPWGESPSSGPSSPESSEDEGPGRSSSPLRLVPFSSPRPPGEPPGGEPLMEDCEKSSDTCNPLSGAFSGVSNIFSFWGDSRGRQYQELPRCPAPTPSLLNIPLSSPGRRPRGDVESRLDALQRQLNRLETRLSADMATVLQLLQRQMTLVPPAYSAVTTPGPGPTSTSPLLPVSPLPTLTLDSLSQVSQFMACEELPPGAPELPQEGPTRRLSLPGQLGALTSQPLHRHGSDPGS
Cytochrome P450 2C9, sequence (P11712 whole entry): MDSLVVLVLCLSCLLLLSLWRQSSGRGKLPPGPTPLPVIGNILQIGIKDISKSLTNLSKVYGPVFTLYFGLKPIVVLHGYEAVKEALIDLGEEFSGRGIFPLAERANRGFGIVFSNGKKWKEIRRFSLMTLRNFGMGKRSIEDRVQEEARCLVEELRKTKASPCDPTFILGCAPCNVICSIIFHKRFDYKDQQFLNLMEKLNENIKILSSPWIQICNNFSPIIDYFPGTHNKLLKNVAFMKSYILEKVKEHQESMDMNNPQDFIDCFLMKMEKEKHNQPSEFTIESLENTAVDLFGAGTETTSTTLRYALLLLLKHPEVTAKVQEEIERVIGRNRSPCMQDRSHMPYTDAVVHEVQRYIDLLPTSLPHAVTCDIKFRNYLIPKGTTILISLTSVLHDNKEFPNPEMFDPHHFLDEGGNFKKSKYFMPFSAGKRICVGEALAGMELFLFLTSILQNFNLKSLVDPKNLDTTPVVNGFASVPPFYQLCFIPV
Cytochrome P450 2D6, sequence (P10635 whole entry): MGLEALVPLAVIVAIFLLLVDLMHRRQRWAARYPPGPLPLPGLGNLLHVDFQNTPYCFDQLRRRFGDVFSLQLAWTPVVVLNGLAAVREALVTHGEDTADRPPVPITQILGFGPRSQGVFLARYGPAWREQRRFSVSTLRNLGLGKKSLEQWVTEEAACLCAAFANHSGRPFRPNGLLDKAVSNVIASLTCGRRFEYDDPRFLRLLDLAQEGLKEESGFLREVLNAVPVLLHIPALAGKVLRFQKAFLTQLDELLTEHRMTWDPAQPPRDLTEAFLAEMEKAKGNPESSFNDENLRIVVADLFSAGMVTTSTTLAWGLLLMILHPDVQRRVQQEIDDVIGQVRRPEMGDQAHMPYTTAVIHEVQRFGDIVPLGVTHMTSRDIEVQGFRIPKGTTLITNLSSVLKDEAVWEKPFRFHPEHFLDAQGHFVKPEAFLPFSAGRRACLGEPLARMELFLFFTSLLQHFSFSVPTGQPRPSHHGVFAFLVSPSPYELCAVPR
Procathepsin L, sequence (P07711 whole entry): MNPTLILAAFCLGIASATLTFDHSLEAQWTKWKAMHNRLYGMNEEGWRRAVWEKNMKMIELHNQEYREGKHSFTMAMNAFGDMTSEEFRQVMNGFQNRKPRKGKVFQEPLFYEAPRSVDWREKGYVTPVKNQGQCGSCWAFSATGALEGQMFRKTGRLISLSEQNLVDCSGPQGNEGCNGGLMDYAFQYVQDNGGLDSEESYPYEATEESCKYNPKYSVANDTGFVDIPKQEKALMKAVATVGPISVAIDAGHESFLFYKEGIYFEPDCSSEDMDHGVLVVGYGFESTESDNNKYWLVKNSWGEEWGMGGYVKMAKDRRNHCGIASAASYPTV
Cytochrome P450 3A4, sequence (P08684 whole entry): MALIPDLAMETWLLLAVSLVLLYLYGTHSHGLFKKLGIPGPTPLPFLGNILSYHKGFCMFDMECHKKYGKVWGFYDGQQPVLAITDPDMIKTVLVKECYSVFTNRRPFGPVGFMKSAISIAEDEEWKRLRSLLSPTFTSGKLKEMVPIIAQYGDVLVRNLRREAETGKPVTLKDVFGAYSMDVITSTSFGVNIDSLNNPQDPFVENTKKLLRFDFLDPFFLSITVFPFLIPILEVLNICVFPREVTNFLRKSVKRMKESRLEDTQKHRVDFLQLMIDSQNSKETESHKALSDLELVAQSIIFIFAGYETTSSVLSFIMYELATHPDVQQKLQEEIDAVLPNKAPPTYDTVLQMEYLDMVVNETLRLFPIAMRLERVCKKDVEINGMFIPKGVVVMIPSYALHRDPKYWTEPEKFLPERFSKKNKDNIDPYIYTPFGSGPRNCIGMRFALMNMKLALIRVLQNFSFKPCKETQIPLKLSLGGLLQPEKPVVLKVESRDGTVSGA
Cathepsin S, sequence (P25774 whole entry): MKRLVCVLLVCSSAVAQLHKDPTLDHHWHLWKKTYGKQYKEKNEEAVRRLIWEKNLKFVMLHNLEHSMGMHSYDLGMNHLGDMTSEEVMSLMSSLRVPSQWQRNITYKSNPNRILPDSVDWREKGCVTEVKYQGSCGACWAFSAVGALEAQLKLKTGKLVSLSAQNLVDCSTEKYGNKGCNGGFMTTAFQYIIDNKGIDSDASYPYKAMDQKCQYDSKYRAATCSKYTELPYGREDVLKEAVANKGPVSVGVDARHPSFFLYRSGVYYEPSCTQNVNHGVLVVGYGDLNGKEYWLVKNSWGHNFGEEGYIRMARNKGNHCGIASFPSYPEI
Dipeptidyl peptidase 1, sequence (P53634 25-134 limits assumed): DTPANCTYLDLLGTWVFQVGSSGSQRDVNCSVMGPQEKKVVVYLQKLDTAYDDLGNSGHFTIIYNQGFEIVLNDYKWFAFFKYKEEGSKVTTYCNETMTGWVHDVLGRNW
Dipeptidyl peptidase 1, sequence (P53634 231-394 limits assumed): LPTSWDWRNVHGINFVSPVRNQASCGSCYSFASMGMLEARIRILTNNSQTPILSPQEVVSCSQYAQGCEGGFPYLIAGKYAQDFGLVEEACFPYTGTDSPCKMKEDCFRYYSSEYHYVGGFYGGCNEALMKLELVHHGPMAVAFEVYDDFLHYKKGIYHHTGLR
Dipeptidyl peptidase 1, sequence (P53634 395-463 limits assumed): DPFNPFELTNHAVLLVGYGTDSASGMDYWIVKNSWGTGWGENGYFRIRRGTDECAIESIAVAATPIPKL

## CO[C@@H](C)c1c(NC(=O)Nc2cnc(-n3nccn3)c(Cl)c2)cnc2cc(Cl)nn12
[1]
  AUC: 20.1 µM·h
[2]
  Cmax: 670 nM
[3]
  Cmax: 1000 nM
[4]
  Activity: -50%
[5]
  IC50: > 100 µM
[6]
  Vd: 4.2 L/kg
[7]
  half-life: 3.7 h
[8]
  Vd: 1.4 L/kg
[9]
  half-life: 8.5 h
[10]
  Papp A→B: 12.8 ×10⁻⁶ cm/s
[11]
  IC50: > 100 µM
[12]; po, 96 h, time 4 day
  ED50: 0.3 mg/kg
[12]; time 4.0 day
  Activity: Dose-dependent effect
[13]
  Activity: Non-Toxic
[14]
  microsomal CLint: < 25 µL/min/mg
[15]
  AUC: 13.2 µM·h
[16]
  IC50: > 10 µM
[17]
  clearance: 5 mL/min/kg
[18]
  IC50: > 30 µM
[19]
  growth inhibition (GI): inactive
[20]
  IC50: > 100 µM
[21]
  IC50: 0.03 µM
[22]
  IC50: > 20 µM
[23]
  IC50: > 100 µM
[24]
  Activity: Non-Toxic
[25]
  Activity: Active
[26]
  Activity: -20%
[27]
  clearance: 7 mL/min/kg
[28]
  T/C: 32%
[29]
  bioavailability: 79%
[30]
  fraction unbound: 0.03
[31]
  fraction unbound: 0.017
[32]
  growth inhibition (GI): Dose-dependent effect
[33]
  IC50: > 100 µM
[34]
  Cmax: 130 nM
[35]
  IC50: 0.24 µM
[36]
  IC50: > 20 µM
[37]
  microsomal CLint: < 25 µL/min/mg
[38]
  inhibition: Active
[39]
  solubility thermodynamic: 4 µg/mL (≈ 8.92 µM)
[40]
  IC50: > 100 µM
[41]
  logP: 3.4
[42]
  IC50: > 20 µM
[43]
  Cmax: 50 nM
[44]
  Cmax: 1700 nM
[45]
  Cmax: 2300 nM
[46]
  Cmax: 260 nM
[47]
  bioavailability: 83%
[48]
  Cmax: 700 nM
[49]
  inhibition in vivo at 3 mg/kg: 97%
[50]
  inhibition in vivo at 0.3 mg/kg: 58%
[51]
  microsomal CLint: < 25 µL/min/mg
